Data: US7449582B2, “Compounds and compositions as protein kinase inhibitors” (IRM LLC, priority 2003, dated 2008)

How the values were obtained:
[1] = target: T1, FGFR3 (Homo sapiens, UniProt P22607); assay: FGFR3 (Enzymatic Assay); format: biochemical; settings: FGFR3 enzyme assay
T1 construct: purchased Upstate
Experimental: Kinase activity assay with purified FGFR3 (Upstate) is carried out in a final volume of 10 μL containing 0.25 μg/mL of enzyme in kinase buffer (30 mM Tris-HCl pH7.5, 15 mM MgCl2, 4.5 mM MnCl2, 15 μM Na3VO4 and 50 μg/mL BSA), and substrates (5 μg/mL biotin-poly-EY(Glu, Tyr) (CIS-US, Inc.) and 3 μM ATP). Two solutions are made: the first solution of 5 μl contains the FGFR3 enzyme in kinase buffer was first dispensed into 384-format ProxiPlate® (Perkin-Elmer) followed by adding 50 nL of compounds dissolved in DMSO, then 5 μl of second solution contains the substrate (poly-EY) and ATP in kinase buffer was added to each wells. The reactions are incubated at room temperature for one hour, stopped by adding 10 μL of HTRF detection mixture, which contains 30 mM Tris-HCl pH7.5, 0.5 M KF, 50 mM ETDA, 0.2 mg/mL BSA, 15 μg/mL streptavidin-XL665 (CIS-US, Inc.) and 150 ng/mL cryptate conjugated anti-phosphotyrosine antibody (CIS-US, Inc.). After one hour of room temperature incubation to allow for streptavidin-biotin interaction, time resolved florescent signals are read on Analyst GT (Molecular Devices Corp.). IC50 values are calculated by linear regression analysis of the percentage inhibition of each compound at 12 concentrations (1:3 dilution from 50 μM to 0.28 nM).

[2] = target: T2, c-Raf (Homo sapiens, UniProt P04049, Y340D/Y341D); assay: Upstate KinaseProfiler radio-enzymatic filter binding assay, c-RAF; format: biochemical; settings: at a concentration of 10 μM; read-out: percentage inhibition
T2 construct: purchased Upstate
T2 sequence (P04049 306-648 Y340D/Y341D limits assumed): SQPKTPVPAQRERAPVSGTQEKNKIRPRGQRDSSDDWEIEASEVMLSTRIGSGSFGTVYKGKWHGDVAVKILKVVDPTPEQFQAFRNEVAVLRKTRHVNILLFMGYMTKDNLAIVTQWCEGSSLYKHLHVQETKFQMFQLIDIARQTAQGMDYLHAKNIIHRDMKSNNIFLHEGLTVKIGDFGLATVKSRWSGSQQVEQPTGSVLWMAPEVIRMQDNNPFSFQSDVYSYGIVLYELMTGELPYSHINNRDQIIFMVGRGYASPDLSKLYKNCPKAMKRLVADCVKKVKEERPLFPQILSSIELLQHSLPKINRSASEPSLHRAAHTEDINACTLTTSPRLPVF
Experimental: (§1) Compounds of the invention are assessed for their ability to inhibit individual members of a panel of kinases (a partial, non-limiting list of kinases includes: Abl, BCR-Abl, CSK, JNK1, JNK2, PDGF-R, p38, p70S6K, TGFβ, SRC, EGFR, c-Kit, trkB, FGFR3, Fes, Lck, Syk, RAF, MKK4, MKK6 and SAPK2μ). The compounds are tested in duplicates at a final concentration of 10 μM following this generic protocol. Note that the kinase buffer composition and the substrates vary for the different kinases included in the “Upstate KinaseProfiler™” panel. Kinase buffer (2.5 μL, 10×—containing MnCl2 when required), active kinase (0.001-0.01 Units; 2.5 μL), specific or Poly(Glu4-Tyr) peptide (5-500 μM or 0.01 mg/ml) in kinase buffer and […] are mixed in an eppendorf on ice. […] The assay squares are transferred to a scintillation vial, 5 ml scintillation cocktail are added and ^32P incorporation (cpm) to the peptide substrate is quantified with a Beckman scintillation counter. Percentage inhibition is calculated for each reaction.

[3] = target: T3, CSK (Homo sapiens, UniProt P41240); assay: Upstate KinaseProfiler radio-enzymatic filter binding assay, CSK; format: biochemical; settings: at a concentration of 10 μM; read-out: percentage inhibition
T3 construct: purchased Upstate
Experimental: as §1

[4] = target: b-Raf (Homo sapiens, UniProt P15056); assay: b-Raf enzyme assay; format: biochemical
Experimental: Compounds of the invention are tested for their ability to inhibit the activity of b-Raf. The assay is carried out in 384-well MaxiSorp plates (NUNC) with black walls and clear bottom. The substrate, IκBα is diluted in DPBS (1:750) and 15 μl is added to each well. The plates are incubated at 4° C. overnight and washed 3 times with TBST (25 mM Tris, pH 8.0, 150 mM NaCl and 0.05% Tween-20) using the EMBLA plate washer. Plates are blocked by Superblock (15 μl/well) for 3 hours at room temperature, washed 3 times with TBST and pat-dried. Assay buffer containing 20 μM ATP (10 μl) is added to each well followed by 100 nl or 500 nl of compound. B-Raf is diluted in the assay buffer (1 μl into 25 μl) and 10 μl of diluted b-Raf is added to each well (0.4 μg/well). The plates are incubated at room temperature for 2.5 hours. The kinase reaction is stopped by washing the plates 6 times with TBST. Phosph-IκBα (Ser32/36) antibody is diluted in Superblock (1:10,000) and 15 μl is added to each well. The plates are incubated at 4° C. overnight and washed 6 times with TBST. AP-conjugated goat-anti-mouse IgG is diluted in Superblock (1:1,500) and 15 μl is added to each well. Plates are incubated at room temperature for 1 hour and washed 6 times with TBST. […] Plates are read on Acquest or Analyst GT using a Fluorescence Intensity Nanxin BBT anion (505 dichroic mirror).

[5] = target: T4, SAPK2β (Homo sapiens, UniProt Q15759); assay: Upstate KinaseProfiler radio-enzymatic filter binding assay, SAPK2β; format: biochemical; settings: at a concentration of 10 μM; read-out: percentage inhibition
T4 construct: purchased Upstate
T4 sequence (Q15759 whole entry): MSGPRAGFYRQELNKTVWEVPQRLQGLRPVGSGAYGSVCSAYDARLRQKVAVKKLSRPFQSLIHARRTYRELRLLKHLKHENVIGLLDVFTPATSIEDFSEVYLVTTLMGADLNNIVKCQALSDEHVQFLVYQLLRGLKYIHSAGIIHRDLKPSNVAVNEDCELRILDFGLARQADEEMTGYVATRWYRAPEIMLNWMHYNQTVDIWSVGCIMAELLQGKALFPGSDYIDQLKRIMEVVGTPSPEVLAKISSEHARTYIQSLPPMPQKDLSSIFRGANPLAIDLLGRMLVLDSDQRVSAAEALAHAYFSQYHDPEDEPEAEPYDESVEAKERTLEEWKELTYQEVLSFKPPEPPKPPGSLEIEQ
Experimental: as §1

[6] = target: T1, FGFR3; assay: Upstate KinaseProfiler radio-enzymatic filter binding assay, FGFR3; format: biochemical; settings: at a concentration of 10 μM; read-out: percentage inhibition
Experimental: as §1

[7] = target: c-Raf (Homo sapiens, UniProt P04049); assay: c-Raf enzyme assay; format: biochemical
c-Raf (Homo sapiens, UniProt P04049), sequence (P04049 whole entry, species assumed): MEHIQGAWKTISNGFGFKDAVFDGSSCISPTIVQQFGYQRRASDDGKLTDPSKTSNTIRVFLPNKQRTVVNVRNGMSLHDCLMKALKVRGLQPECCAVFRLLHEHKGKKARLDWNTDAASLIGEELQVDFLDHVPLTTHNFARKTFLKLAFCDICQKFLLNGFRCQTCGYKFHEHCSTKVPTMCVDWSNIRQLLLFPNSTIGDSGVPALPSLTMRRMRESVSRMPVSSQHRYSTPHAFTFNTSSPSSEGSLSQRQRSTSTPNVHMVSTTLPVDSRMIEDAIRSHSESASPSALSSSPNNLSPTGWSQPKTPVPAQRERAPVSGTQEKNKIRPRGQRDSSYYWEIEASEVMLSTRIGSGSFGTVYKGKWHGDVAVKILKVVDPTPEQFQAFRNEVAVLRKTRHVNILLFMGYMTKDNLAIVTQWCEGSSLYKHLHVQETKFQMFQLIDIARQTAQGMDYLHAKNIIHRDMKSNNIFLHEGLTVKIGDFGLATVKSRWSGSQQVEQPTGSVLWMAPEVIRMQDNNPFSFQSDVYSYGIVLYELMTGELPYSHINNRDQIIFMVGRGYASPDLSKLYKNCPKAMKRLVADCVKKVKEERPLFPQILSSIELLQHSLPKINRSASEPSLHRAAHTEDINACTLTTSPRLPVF

[8] = target: T5, E255V Bcr-abl (Homo sapiens, UniProt P00519, E255V); assay: Proliferation of Ba/F3 cells expressing E255V mutant Bcr-abl; format: cell-based
T5 construct: BCR (N-terminal fusion partner); expressed in transfected cells; host or cells: Ba/F3 (murine pro-B cells); the other entry of the earlier key: BCR (P11274, Breakpoint cluster region protein)
Experimental: (§2) 32D-p210 cells are plated into 96 well TC plates at a density of 15,000 cells per well. 50 μL of two fold serial dilutions of the test compound (Cmax is 40 μM) are added to each well (STI571 is included as a positive control). After incubating the cells for 48 hours at 37° C., 5% CO2, 15 μL of MTT (Promega) is added to each well and the cells are incubated for an additional 5 hours. The optical density at 570 nm is quantified spectrophotometrically and IC50 values, the concentration of compound required for 50% inhibition, determined from a dose response curve.
(§3) Compounds of the invention are tested for their antiproliferative effect on Ba/F3 cells expressing either wild type or the mutant forms of BCR-Abl (G250E, E255V, T315I, F317L, M351T) that confers resistance or diminished sensitivity to ST1571. The antiproliferative effect of these compounds on the mutant-BCR-Abl expressing cells and on the non transformed cells were tested at 10, 3.3, 1.1 and 0.37 μM as described above (in media lacking IL3). The IC50 values of the compounds lacking toxicity on the untransformed cells were determined from the dose response curves obtained as describe above.

[9] = target: T6, SAPK2α (Homo sapiens, UniProt Q16539); assay: Upstate KinaseProfiler radio-enzymatic filter binding assay, SAPK2α; format: biochemical; settings: at a concentration of 10 μM; read-out: percentage inhibition
T6 construct: purchased Upstate
T6 sequence (Q16539 whole entry): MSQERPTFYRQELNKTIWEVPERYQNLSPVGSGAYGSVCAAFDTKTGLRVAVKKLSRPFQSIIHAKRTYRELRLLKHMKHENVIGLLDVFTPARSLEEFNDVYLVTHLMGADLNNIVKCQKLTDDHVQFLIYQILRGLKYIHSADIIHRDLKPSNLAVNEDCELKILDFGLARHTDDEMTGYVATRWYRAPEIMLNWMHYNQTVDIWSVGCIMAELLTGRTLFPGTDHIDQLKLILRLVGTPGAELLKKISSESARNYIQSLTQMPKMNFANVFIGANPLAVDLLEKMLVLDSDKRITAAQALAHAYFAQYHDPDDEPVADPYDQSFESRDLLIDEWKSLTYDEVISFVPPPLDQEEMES
Experimental: as §1

[10] = target: T7, G250E Bcr-abl (Homo sapiens, UniProt P00519, G250E); assay: Proliferation of Ba/F3 cells expressing G250E mutant Bcr-abl; format: cell-based
T7 construct: BCR (N-terminal fusion partner); expressed in transfected cells; host or cells: Ba/F3 (murine pro-B cells); the other entry of the earlier key: BCR (P11274, Breakpoint cluster region protein)
Experimental: as §2, §3

[11] = target: T8, JNK2 α2 (Homo sapiens, UniProt P45984); assay: Upstate KinaseProfiler radio-enzymatic filter binding assay, JNK2α2; format: biochemical; settings: at a concentration of 10 μM; read-out: percentage inhibition
T8 construct: purchased Upstate
Experimental: as §1

[12] = target: T9, p70S6K (Homo sapiens, UniProt P23443); assay: Upstate KinaseProfiler radio-enzymatic filter binding assay, p70S6K; format: biochemical; settings: at a concentration of 10 μM; read-out: percentage inhibition
T9 construct: purchased Upstate
T9 sequence (P23443 whole entry): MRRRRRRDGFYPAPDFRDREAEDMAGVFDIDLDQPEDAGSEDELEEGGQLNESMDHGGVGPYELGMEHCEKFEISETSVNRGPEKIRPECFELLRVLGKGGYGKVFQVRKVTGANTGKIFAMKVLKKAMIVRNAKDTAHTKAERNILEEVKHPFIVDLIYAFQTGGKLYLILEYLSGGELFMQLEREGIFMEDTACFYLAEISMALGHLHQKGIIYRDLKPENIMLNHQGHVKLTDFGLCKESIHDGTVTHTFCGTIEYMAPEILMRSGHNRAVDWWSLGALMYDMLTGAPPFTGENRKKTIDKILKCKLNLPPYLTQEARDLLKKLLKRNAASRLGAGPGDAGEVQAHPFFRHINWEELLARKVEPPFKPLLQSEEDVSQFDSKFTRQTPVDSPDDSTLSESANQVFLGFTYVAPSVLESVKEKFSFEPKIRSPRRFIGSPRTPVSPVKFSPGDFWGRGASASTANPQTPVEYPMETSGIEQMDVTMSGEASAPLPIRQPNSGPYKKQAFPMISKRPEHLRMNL
Experimental: as §1

[13] = target: T10, Lck (Homo sapiens, UniProt P06239); assay: Upstate KinaseProfiler radio-enzymatic filter binding assay, Lck; format: biochemical; settings: at a concentration of 10 μM; read-out: percentage inhibition
T10 construct: purchased Upstate
T10 sequence (P06239 whole entry): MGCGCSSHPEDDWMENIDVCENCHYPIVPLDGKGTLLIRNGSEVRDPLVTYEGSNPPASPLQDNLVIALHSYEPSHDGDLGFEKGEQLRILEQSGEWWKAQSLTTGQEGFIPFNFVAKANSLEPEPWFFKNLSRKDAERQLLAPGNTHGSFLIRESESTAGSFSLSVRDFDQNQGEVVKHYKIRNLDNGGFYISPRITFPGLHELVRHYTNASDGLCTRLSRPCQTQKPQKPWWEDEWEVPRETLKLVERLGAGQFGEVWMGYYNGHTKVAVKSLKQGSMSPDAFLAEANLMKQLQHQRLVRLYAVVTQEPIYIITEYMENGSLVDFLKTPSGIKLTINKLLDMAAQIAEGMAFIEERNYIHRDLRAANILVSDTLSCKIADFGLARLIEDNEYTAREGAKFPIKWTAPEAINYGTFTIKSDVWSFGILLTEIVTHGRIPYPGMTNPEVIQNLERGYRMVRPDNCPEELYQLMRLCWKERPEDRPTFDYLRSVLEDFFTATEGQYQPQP
Experimental: as §1

[14] = target: T11, wild type Bcr-abl (Homo sapiens, UniProt P00519); assay: Proliferation of Ba/F3 cells expressing wild type Bcr-abl; format: cell-based
T11 construct: BCR (N-terminal fusion partner); expressed in transfected cells; host or cells: Ba/F3 (murine pro-B cells); the other entry of the earlier key: BCR (P11274, Breakpoint cluster region protein)
Experimental: as §2, §3

[15] = target: T12, MKK6 (Homo sapiens, UniProt P52564); assay: Upstate KinaseProfiler radio-enzymatic filter binding assay, MKK6; format: biochemical; settings: at a concentration of 10 μM; read-out: percentage inhibition
T12 construct: purchased Upstate
Experimental: as §1

[16] = target: T13, F317L Bcr-abl (Homo sapiens, UniProt P00519, F317L); assay: Proliferation of Ba/F3 cells expressing F317L mutant Bcr-abl; format: cell-based
T13 construct: BCR (N-terminal fusion partner); expressed in transfected cells; host or cells: Ba/F3 (murine pro-B cells); the other entry of the earlier key: BCR (P11274, Breakpoint cluster region protein)
Experimental: as §2, §3

[17] = target: T14, T315I Bcr-abl (Homo sapiens, UniProt P00519, T315I); assay: Proliferation of Ba/F3 cells expressing T315I mutant Bcr-abl; format: cell-based
T14 construct: BCR (N-terminal fusion partner); expressed in transfected cells; host or cells: Ba/F3 (murine pro-B cells); the other entry of the earlier key: BCR (P11274, Breakpoint cluster region protein)
Experimental: as §2, §3

[18] = target: T15, JNK1α1 (Homo sapiens, UniProt P45983); assay: Upstate KinaseProfiler radio-enzymatic filter binding assay, JNK1α1; format: biochemical; settings: at a concentration of 10 μM; read-out: percentage inhibition
T15 construct: purchased Upstate
T15 sequence (P45983 1-384 isoform P45983-2): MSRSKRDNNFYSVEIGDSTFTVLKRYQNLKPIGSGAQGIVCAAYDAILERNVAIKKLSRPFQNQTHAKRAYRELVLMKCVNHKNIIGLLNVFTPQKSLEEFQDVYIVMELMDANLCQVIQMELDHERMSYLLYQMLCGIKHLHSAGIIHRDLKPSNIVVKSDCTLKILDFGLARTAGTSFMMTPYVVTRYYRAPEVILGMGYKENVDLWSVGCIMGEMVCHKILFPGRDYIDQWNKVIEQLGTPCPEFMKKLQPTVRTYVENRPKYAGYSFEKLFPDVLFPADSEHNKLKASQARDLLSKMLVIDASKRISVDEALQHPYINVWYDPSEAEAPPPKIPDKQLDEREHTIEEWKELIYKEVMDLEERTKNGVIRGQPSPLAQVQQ
Experimental: as §1

[19] = test system: Ba/F3-TEL-FGFR3 cells; assay: FGFR3 (Cellular Assay); format: cell-based
Experimental: Compounds of the invention are tested for their ability to inhibit transformed Ba/F3-TEL-FGFR3 cells proliferation, which is depended on FGFR3 cellular kinase activity. Ba/F3-TEL-FGFR3 are cultured up to 800,000 cells/mL in suspension, with RPMI 1640 supplemented with 10% fetal bovine serum as the culture medium. Cells are dispensed into 384-well format plate at 5000 cell/well in 50 μL culture medium. Compounds of the invention are dissolved and diluted in dimethylsufoxide (DMSO). Twelve points 1:3 serial dilutions are made into DMSO to create concentrations gradient ranging typically from 10 mM to 0.05 μM. Cells are added with 50 nL of diluted compounds and incubated for 48 hours in cell culture incubator. AlamarBlue® (TREK Diagnostic Systems), which can be used to monitor the reducing environment created by proliferating cells, are added to cells at final concentration of 10%. After additional four hours of incubation in a 37° C. cell culture incubator, fluorescence signals from reduced AlamarBlue® (Excitation at 530 nm, Emission at 580 nm) are quantified on Analyst GT (Molecular Devices Corp.). IC50 values are calculated by linear regression analysis of the percentage inhibition of each compound at 12 concentrations.

[20] = test system: wild-type Abl; assay: Upstate KinaseProfiler radio-enzymatic filter binding assay, Abl; format: biochemical; settings: at a concentration of 10 μM
Experimental: as §1

[21] = target: T16, M351T Bcr-abl (Homo sapiens, UniProt P00519, M351T); assay: Proliferation of Ba/F3 cells expressing M351T mutant Bcr-abl; format: cell-based
T16 construct: BCR (N-terminal fusion partner); expressed in transfected cells; host or cells: Ba/F3 (murine pro-B cells); the other entry of the earlier key: BCR (P11274, Breakpoint cluster region protein)
Experimental: as §2, §3

[22] = target: T17, TrkB (Homo sapiens, UniProt Q16620); assay: Upstate KinaseProfiler radio-enzymatic filter binding assay, TrkB; format: biochemical; settings: at a concentration of 10 μM; read-out: percentage inhibition
T17 construct: purchased Upstate
T17 sequence (Q16620 32-822): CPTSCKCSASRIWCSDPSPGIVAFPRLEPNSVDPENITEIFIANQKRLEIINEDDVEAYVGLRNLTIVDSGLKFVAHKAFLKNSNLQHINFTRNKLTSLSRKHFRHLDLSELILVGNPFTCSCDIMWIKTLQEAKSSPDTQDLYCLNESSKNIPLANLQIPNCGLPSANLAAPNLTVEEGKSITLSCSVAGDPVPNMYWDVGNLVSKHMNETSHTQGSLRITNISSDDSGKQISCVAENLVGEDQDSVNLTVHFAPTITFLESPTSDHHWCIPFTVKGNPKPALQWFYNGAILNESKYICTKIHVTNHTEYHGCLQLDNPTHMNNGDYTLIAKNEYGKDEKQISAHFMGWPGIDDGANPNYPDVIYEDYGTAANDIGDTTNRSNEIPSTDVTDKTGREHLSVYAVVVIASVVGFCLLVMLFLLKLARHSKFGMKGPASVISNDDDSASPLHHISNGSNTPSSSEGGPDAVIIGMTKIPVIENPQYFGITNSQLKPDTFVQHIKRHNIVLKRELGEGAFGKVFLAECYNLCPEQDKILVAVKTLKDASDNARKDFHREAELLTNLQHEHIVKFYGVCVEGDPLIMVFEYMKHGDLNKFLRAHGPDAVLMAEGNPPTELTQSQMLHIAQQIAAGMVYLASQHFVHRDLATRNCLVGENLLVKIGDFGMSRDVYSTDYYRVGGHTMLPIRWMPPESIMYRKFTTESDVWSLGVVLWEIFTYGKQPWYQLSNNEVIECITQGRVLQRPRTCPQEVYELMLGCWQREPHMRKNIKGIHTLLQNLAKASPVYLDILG
Experimental: as §1

[23] = target: T18, Bmx (Homo sapiens, UniProt P51813); assay: Upstate KinaseProfiler radio-enzymatic filter binding assay, Bmx; format: biochemical; settings: at a concentration of 10 μM; read-out: percentage inhibition
T18 construct: purchased Upstate
Experimental: as §1

[24] = target: T19, MKK4 (Mus musculus, UniProt P47809); assay: Upstate KinaseProfiler radio-enzymatic filter binding assay, MKK4; format: biochemical; settings: at a concentration of 10 μM; read-out: percentage inhibition
T19 construct: purchased Upstate
Experimental: as §1

T1 sequence (P22607 23-806): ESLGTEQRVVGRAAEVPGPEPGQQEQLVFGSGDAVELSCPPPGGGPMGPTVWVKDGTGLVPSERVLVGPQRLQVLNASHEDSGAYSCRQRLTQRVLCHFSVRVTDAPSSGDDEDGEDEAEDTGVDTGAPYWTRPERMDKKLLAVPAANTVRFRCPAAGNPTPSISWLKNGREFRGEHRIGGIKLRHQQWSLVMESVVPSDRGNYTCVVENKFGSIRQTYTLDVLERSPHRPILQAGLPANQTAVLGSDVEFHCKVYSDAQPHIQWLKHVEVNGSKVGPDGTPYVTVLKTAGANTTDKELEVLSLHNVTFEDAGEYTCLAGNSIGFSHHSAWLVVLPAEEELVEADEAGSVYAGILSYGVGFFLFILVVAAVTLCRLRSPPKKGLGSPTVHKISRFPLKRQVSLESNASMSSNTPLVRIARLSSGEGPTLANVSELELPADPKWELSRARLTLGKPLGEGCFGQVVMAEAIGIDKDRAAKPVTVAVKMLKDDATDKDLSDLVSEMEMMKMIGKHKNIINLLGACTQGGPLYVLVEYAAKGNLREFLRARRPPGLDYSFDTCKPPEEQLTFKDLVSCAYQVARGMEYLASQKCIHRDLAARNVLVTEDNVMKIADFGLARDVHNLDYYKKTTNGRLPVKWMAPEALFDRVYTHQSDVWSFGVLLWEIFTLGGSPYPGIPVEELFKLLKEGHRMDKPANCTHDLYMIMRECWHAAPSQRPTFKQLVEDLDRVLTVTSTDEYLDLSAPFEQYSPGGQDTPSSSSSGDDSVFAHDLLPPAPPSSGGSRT

IC50 [1]: 107 nM
inhibition at 10 µM [2]: 90%
inhibition at 10 µM [3]: 100%
IC50 [4]: 500 nM
inhibition at 10 µM [5]: 98%
inhibition at 10 µM [6]: 96%
IC50 [7]: 17 nM
IC50 [8]: 48 nM
inhibition at 10 µM [9]: 95%
IC50 [10]: 43 nM
inhibition at 10 µM [11]: 99%
inhibition at 10 µM [12]: 86%
inhibition at 10 µM [13]: 99%
IC50 [14]: < 0.5 nM
inhibition at 10 µM [15]: 97%
IC50 [16]: < 0.5 nM
IC50 [17]: 122 nM
inhibition at 10 µM [18]: 89%
IC50 [19]: 3 nM
percentage inhibition [20]: 100%
IC50 [21]: 9 nM
inhibition at 10 µM [22]: 97%
inhibition at 10 µM [23]: 100%
inhibition at 10 µM [24]: 91%
Structure (SMILES): COc1ccc(Nc2cc3c(cn2)cc(-c2cc(NC(=O)c4cccc(C(F)(F)F)c4)ccc2C)c(=O)n3C)cn1 [Example 8, N-{3-[7-(6-Methoxy-pyridin-3-ylamino)-1-methyl-2-oxo-1,2-dihydro-[1,6]naphthyridin-3-yl]-4-methyl-phenyl}-3-trifluoromethyl-benzamide]
